Experiments:
[1] = tested on: Th17 cell; assay: Spleen T cell differentiation into Th17 cells, FACS; assay type: cell-based; conditions: C56BL/6J mouse spleen CD4 T cells; lactic acid bacteria 1×10^5 CFU per well, four days
Procedure: (§1) Particularly, a spleen was isolated from a C56BL/6J mouse, then crushed, then suspended in an RPMI 1640 medium containing 10% FCS, and then CD4 T cells were isolated by using a CD4 T cell isolation kit (MiltenyiBiotec, Bergisch Gladbach, Germany). The isolated CD4 T cells were divided into a 12-well plate at 5×10^5 cells per well. After that, the cells were cultured in each well with an addition of anti-CD3, anti-CD28, IL-2 and IL-12 to induce a differentiation of T cells into Th1 cells; with the addition of anti-CD3, anti-CD28, IL-2 and IL-4 to induce the differentiation of T cells into Th2 cells; with the addition of anti-CD3, anti-CD28, IL-6 and TGF-β to induce the differentiation of T cells into Th17 cells; and with the addition of anti-CD3 and anti-CD28 to induce the differentiation of T cells into Treg cells, and a test material, i.e., lactic acid bacteria were inserted thereinto at 1×10^5 CFU per well, and then cultured for four days. Also, in order to compare the effects of lactic acid bacteria, various prebiotics were used as the test material.
(§2) After that, a differentiation potency of the T cells isolated from the spleen into Th1, Th2, Th17 and Treg cells was measured. Particularly, the cells of culture fluid were stained with anti-FOXp3 or anti-IL-17A antibodies, after which a distribution of Th1, Th2, Th17 and Treg cells was analyzed by means of a FACS (fluorescence-activated cell sorting) device (C6 Flow Cytometer® System, San Jose, CA, USA), wherein results thereof are shown in following tables 11 to 13. In the tables 11 to 13 below, the lactic acid bacteria are shown without species names thereof, and are given strain names assigned by the present inventors.

[2] = tested on: Th2 cell; assay: Spleen T cell differentiation into Th2 cells, FACS; assay type: cell-based; conditions: C56BL/6J mouse spleen CD4 T cells; lactic acid bacteria 1×10^5 CFU per well, four days
Procedure: as §1, §2

[3] = tested on: IL-10; assay: Inflammation reaction inhibiting effect on dendritic cells (LPS): IL-10 expression, ELISA; assay type: cell-based; conditions: C57BL/6 mouse bone marrow dendritic cells + LPS; lactic acid bacteria 1×10^4 CFU/ml
Excerpt: (§3) Immune cells were isolated from the bone marrow of a C57BL/6 mouse (male, 20-23 g) by using RPMI 1640 containing 10% FBS, 1% antibiotics, 1% glutamax and 0.1% mercaptoethanol, then treated with RBC lysis buffer, and then washed. Said cells were divided into each well of a 24-well plate, then treated with GM-CSF and IL-4 at a ratio of 1:1000, and then cultured. On a 5th day of culture, the cells were replaced with a new medium, then collected on an 8th day thereof, and then used as dendritic cells. After that, the dendritic cells were plated into a 24-well plate at 0.5×10^6 cells per well, then treated with a test material, i.e., lactic acid bacteria, as well as an inflammation reaction inducer, i.e., lipopolysaccharide (LPS) for 90 minutes or 24 hours, and then supernatant and cells were obtained therefrom. At that time, a treatment concentration of lactic acid bacteria was 1×10^4 CFU/ml. Also, in order to compare the effects of lactic acid bacteria, various prebiotics were used as the test material.
(§4) An expression level of IL-10 and IL-12 was measured from said obtained supernatant by means of an ELISA kit. Also, the expression level of p65 (NF-κB), p-p65 (phosphor-NF-κB) and β-actin was measured from the cells, which have been obtained after being treated with the test material for 90 minutes, by means of the same immunoblotting method as in Example 2.(1) above. The results of testing the inflammation reaction inhibiting effect of lactic acid bacteria on dendritic cells are shown in following tables 8 to 10.

[4] = tested on: NF-κB (p-p65/p65); assay: Inflammation reaction inhibiting effect on dendritic cells (LPS): NF-κB activation, immunoblotting; assay type: cell-based; conditions: C57BL/6 mouse bone marrow dendritic cells + LPS, 90 minutes; lactic acid bacteria 1×10^4 CFU/ml
Excerpt: as §3, §4

[5] = tested on: Treg cell; assay: Spleen T cell differentiation into Treg cells, FACS; assay type: cell-based; conditions: C56BL/6J mouse spleen CD4 T cells; lactic acid bacteria 1×10^5 CFU per well, four days
Procedure: as §1, §2

[6] = tested on: NF-κB (p-p65/p65); assay: Inflammation reaction inhibiting effect on macrophage (LPS): NF-κB activation, immunoblotting; assay type: cell-based; conditions: C57BL/6J mouse peritoneal macrophage + LPS; lactic acid bacteria 1×10^4 CFU/ml
Procedure: (§5) A six-week old C57BL/6J male mouse (20-23 g) was purchased from Raonbio Co., Ltd. 2 ml of sterilized 4% thioglycolate was intraperitoneally administered into the mouse, which was then anesthetized in 96 hours later. After that, 8 ml of RPMI 1640 medium was intraperitoneally administered to the mouse. In 5 to 10 minutes later, the RPMI medium (including macrophage) was intraperitoneally extracted again from the mouse, then centrifuged on condition of 1000 rpm for 10 minutes, and then washed twice again with the RPMI 1640 medium. The macrophage was plated into a 24-well plate at 0.5×10^6 cells per well, then cultured for 24 hours, and then unattached cells were removed therefrom. The macrophage culture fluid was treated with a test material, i.e., lactic acid bacteria as well as an inflammation reaction inducer, i.e., lipopolysaccharide (LPS) for 90 minutes or 24 hours, and then supernatant and cells were obtained therefrom. At that time, a treatment concentration of lactic acid bacteria was 1×10^4 CFU/ml. Also, in order to compare the effects of lactic acid bacteria, various prebiotics were used as the test material.
An expression level of TNF-α from said obtained supernatant was measured by means of an ELISA kit. Also, the expression level of p65 (NF-κB), p-p65 (phosphor-NF-κB) and β-actin was measured from said obtained cells by means of an immunoblotting method. Particularly, 50 μg of the supernatant was taken and subjected to electrophoresis in SDS 10% (w/v) polyacrylamide gel for one and half an hour. The electrophoresed sample was transferred onto a nitrocellulose paper on condition of 100 V and 400 mA for one hour and 10 minutes. The nitrocellulose paper, onto which the sample was transferred, was subjected to blocking by means of 5% skim milk for 30 minutes, then washed with PBS-Tween three times for five minutes each, and then subjected to reaction overnight with an addition of primary antibodies (Santa Cruz Biotechnology, the U.S.) at a ratio of 1:100. After that, such paper was washed three times for ten minutes each, and subjected to reaction with the addition of secondary antibodies (Santa Cruz Biotechnology, the U.S.) at a ratio of 1:1000 for one hour and 20 minutes. Then, such paper was washed three times for 15 minutes each, then subjected to fluorescent color formation, then developed, and then the intensity of chromophore band was measured.

[7] = tested on: Th1 cell; assay: Spleen T cell differentiation into Th1 cells, FACS; assay type: cell-based; conditions: C56BL/6J mouse spleen CD4 T cells; lactic acid bacteria 1×10^5 CFU per well, four days
Procedure: as §1, §2

[8] = tested on: IL-12; assay: Inflammation reaction inhibiting effect on dendritic cells (LPS): IL-12 expression, ELISA; assay type: cell-based; conditions: C57BL/6 mouse bone marrow dendritic cells + LPS; lactic acid bacteria 1×10^4 CFU/ml
Excerpt: as §3, §4

[9] = tested on: animal model with induced allergic rhinitis and asthma; assay: Example 6: OVA-induced allergic rhinitis and asthma mice, indicators in serum and BALF (ELISA, FACS); assay type: in vivo, mouse; conditions: oral once daily for five days, Dx 1 mg/kg intraperitoneal
Procedure: Seven week-old BALB/C female mice (21-23 g) were acclimated for one week on condition of a controlled environment with humidity of 50%, temperature of 25° C., and light/dark cycle of 12:12 hours. After that, 20 μg of allergy-inducing ovalbumin (OVA) and 2 mg of aluminum hydroxide (Alum) were suspended into 0.2 ml of phosphate buffered saline (PBS: pH 7.4) and intraperitoneally injected into each of the mice on initial and 14th days of an experiment. Then, 100 μg of the OVA was dissolved in 10 μl of distilled water, and intranasally smeared onto each of the mice to induce allergic rhinitis and asthma therefrom on 26th, 27th and 28th days of the experiment. Meanwhile, a test drug, i.e., lactic acid bacteria were orally administered into each of the mice once daily for a total of five days from 26th to 30th days of the experiment. Also, dexamethasone, which was used as a positive control drug instead of lactic acid bacteria, was intraperitoneally administered at a dose of 1 mg/kg b.w. Further, in case of the mice of a normal group, allergic rhinitis and asthma were not induced therefrom, but only the phosphate buffered saline (PBS: pH 7.4) was orally administered thereinto instead of the OVA and the test drug. Furthermore, in case of the mice of a control group, allergic rhinitis and asthma were induced therefrom, and only the phosphate buffered saline (PBS: pH 7.4) was orally administered thereinto as the test drug. After an end of the experiment, the mice were anesthetized, after which blood, lung tissues and the BALF were collected therefrom. Serum was isolated from the blood collected by means of centrifugation, and used as an assay sample. Indicators related to anti-rhinitis and anti-asthma effects were analyzed from serum, the BALF and lung tissues by using various analysis methods. Each analysis method and indicators analyzed thereby are as follows. • Enzyme-linked immunosorbent assay (ELISA): IL-10, IL-5, IL-6, IL-4, IgE, etc. • FACS (fluorescence-activated cell sorting): Distribution of T cells (Th1: CD4^+/IFN-γ^+; Th2: CD4^+/IL-4^+; Treg: CD4^+/FOXp3^+; Th17: CD4^+/IL-17^+), Distribution of eosinophils (CD11b^+, Siglec-F^+)

[10] = tested on: TNF-α; assay: Inflammation reaction inhibiting effect on macrophage (LPS): TNF-α expression, ELISA; assay type: cell-based; conditions: C57BL/6J mouse peritoneal macrophage + LPS; lactic acid bacteria 1×10^4 CFU/ml
Procedure: as §5, with “At that time, a treatment concentration of lactic acid bacteria was 1×10^4 CFU/ml. Also, in order to compare the effects of lactic acid bacteria, various prebiotics were used as the test material.” left out
An expression level of TNF-α from said obtained supernatant was measured by means of an ELISA kit. Also, the expression level of p65 (NF-κB), p-p65 (phosphor-NF-κB) and β-actin was measured from said obtained cells by means of an immunoblotting method. […] Then, such paper was washed three times for 15 minutes each, then subjected to fluorescent color formation, then developed, and then the intensity of chromophore band was measured.

Row | Compound | Differentiation inhibition rate Th17 cell [1] | Differentiation inhibition rate Th2 cell [2] | IL-10 expression increasing rate [3] | NF-κB activation inhibition rate (p-p65/p65) [4] | Differentiation increasing rate Treg cell [5] | NF-κB activation inhibition rate (p-p65/p65) [6] | Differentiation inhibition rate Th1 cell [7] | IL-12 expression inhibition rate [8] | Increasing rate Treg cell ([9]; BALF, FACS) | Inhibition rate Eosinophils ([9]; BALF, FACS) | Inhibition rate Th2 cell ([9]; BALF, FACS) | Increasing rate IL-10 ([9]; BALF) | Inhibition rate IL-4 ([9]; BALF) | Inhibition rate IL-5 ([9]; BALF) | Inhibition rate IL-4 ([9]; serum) | Inhibition rate IL-5 ([9]; serum) | Inhibition rate IgE ([9]; serum) | TNF-α expression inhibition rate [10]
1 | OC[C@H]1O[C@@H](O[C@@H]2[C@@H](CO)OC(O)(CO)[C@H]2O)[C@H](O)[C@@H](O)[C@H]1O (mixture of isomers) [Lactulose, lactulose] | − (<10%) | ++ (30-60%) | − (<10%) | + (10-30%) | ++ (50-100%) | + (10-30%) | + (10-30%) | + (10-30%) |  |  |  |  |  |  |  |  |  | 
2 | C[C@@H]1C[C@H]2[C@@H]3CCC4=CC(=O)C=C[C@]4(C)[C@@]3(F)[C@@H](O)C[C@]2(C)[C@@]1(O)C(=O)CO [Dx, dexamethasone] |  |  |  |  |  |  |  |  | − (<10%) | +++ (>60%) | +++ (>60%) | ++ (50-100%) | +++ (>60%) | +++ (>60%) | +++ (>60%) | ++ (30-60%) | +++ (>60%) | 
3 | OC[C@H]1O[C@H](O[C@H]2O[C@H](CO)[C@@H](O)[C@H](O)[C@H]2O)[C@H](O)[C@@H](O)[C@@H]1O [Trehalose, trehalose] | + (10-30%) | + (10-30%) | + (10-50%) | + (10-30%) | + (10-50%) | + (10-30%) | + (10-30%) | + (10-30%) |  |  |  |  |  |  |  |  |  | 
4 | cyclodextrin | ++ (30-60%) | + (10-30%) | − (<10%) | + (10-30%) | + (10-50%) | + (10-30%) | ++ (30-60%) | + (10-30%) |  |  |  |  |  |  |  |  |  | 
5 | gelatin | + (10-30%) | ++ (30-60%) | + (10-50%) | + (10-30%) | + (10-50%) | + (10-30%) | + (10-30%) | + (10-30%) |  |  |  |  |  |  |  |  |  | + (10-30%)
